Type in all cases: in vivo, mice (C57BL/6J)
Data set [1] concerns mice with oligomeric Aβ25-35 injected into bilateral hippocampal CA1. Nature of the data set: Y-Maze Activity Test. The note with it: Aβ25-35 mice, high dose 0.5 mg/kg i.p. once a day. As for the experimental part: Further, in some embodiments of the present invention, C57BL/6J strain male mice (12 week old) are used as a subject in need. After mice are allowed to adapt to the environment for 6 days, mice are anesthetized with Avertin (0.4 g/kg; purchased from Sigma). The mice are fixed on a stereotactic apparatus for operation, followed by injecting oligomeric Aβ25-35 (10 nM, 3 μL) into bilateral hippocampal CA1 (AP: […] relative to the bregma; ML: ±[…] relative to the midline; DV: […] relative to the skull) on day 7. MGCD0103 and equal volume of vehicle (saline) are intraperitoneal (i.p.) injected once a day from day 8, the day after said operation, for 29 days. […]
Y-Maze Activity Test is a test that takes advantage of the characteristic that mice tend to explore an unfamiliar environment, so that the short-term spatial memory of mice can be measured by means of a Y-maze module arranged with three arms (35 cm×5 cm×20 cm) formed of white acrylic. The mice are placed in the middle of the three arms of the Y-Maze, and the mice are allowed to freely and spontaneously explore for 8 minutes, wherein one count is recorded when four limbs of the mice completely enter any one of the three arms. […]

The test system of data set [2] is IDE (Aβ degrading enzyme). As to the kind of experiment: Western blot, IDE. The conditions noted are these: Aβ25-35 mice, hippocampus. The protocol: (§1) Further, in some embodiments of the present invention, C57BL/6J strain male mice (12 week old) are used as a subject in need. After mice are allowed to adapt to the environment for 6 days, mice are anesthetized with Avertin (0.4 g/kg; purchased from Sigma). The mice are fixed on a stereotactic apparatus for operation, followed by injecting oligomeric Aβ25-35 (10 nM, 3 μL) into bilateral hippocampal CA1 (AP: […] relative to the bregma; ML: ±[…] relative to the midline; DV: […] relative to the skull) on day 7. MGCD0103 and equal volume of vehicle (saline) are intraperitoneal (i.p.) injected once a day from day 8, the day after said operation, for 29 days. On day 24, the Open Field Test is performed; on day 26, the EPM is performed; on day 28, the Y-maze is performed; on days 30 to 36, MWM is performed; and on day 37, mice are euthanized for pathological analysis.
In general terms: Immunoblotting shows a protein as a band on a membrane.

The subject of data set [3] is mice with oligomeric Aβ25-35 injected into bilateral hippocampal CA1. Nature of the data set: Elevated Plus Maze Test. The conditions noted are these: Aβ25-35 mice, high dose 0.5 mg/kg i.p. once a day. As for the experimental part:
as §1
By means of observing the mice exploring an unfamiliar environment, and the contradictory and conflicting behavior caused by fear of the animal of highly hanging arms of the maze, the anxiety level of the animal can be determined. […] The total time spent at the open arms for each mouse was recorded by a video tracking system (EthoVision-XT, Noldus).

The subject of data set [4] is Aβ accumulation in hippocampal CA1. Nature of the data set: Immunohistochemical staining, Aβ accumulation (6E10). The note with it: Aβ25-35 mice. The protocol:
as §1
(§2) The inventor collects the brain tissue by perfusion followed by fixing and dehydrating, then, 30 μm frozen sections are obtained by a freezing microtome (CMS3050S, Leica). […] After that, avidin-biotin complex (ABC) is detected 1 hour after staining. […] After all sections have been stained, they are then fixed on a slide, dried, dehydrated, mounted, and photographed for quantity (performed by Image Pro Plus, Meida Cyberetics, USA).

Data set [5] has as its system mice with oligomeric Aβ25-35 or saline injected into hippocampal CA1. As to the kind of experiment: Morris Water Maze memory test. The protocol:
as §1
MWM is a test for observing spatial learning and memory of mice by placing a platform in a wide pool. […] The behavior of finding the platform relates to a complex memory process within the brain, including 1) collecting the visual information (such as shape information of rectangles, circles and triangles) with respect to spatial positioning, and 2) processing, sorting, memorizing, fixing and recalling said information. In particular, the mice are placed in a pool filled with milky white non-toxic advertising pigment (used to make the water become opaque to hide the platform so that the mice may not know the position of the platform at the beginning), and are allowed to explore in search of the platform (which is fixed in a predetermined quadrant) underwater. The test is split into several phases as follows: 1) exploration phase: Place the mouse in the water and leave it there for 1 minute. If the mouse cannot find the platform in time, then move the mouse to the platform and leave there for 20 seconds. Then, place the mouse at a dry location and allow to rest until the next experiment; 2) acceptance phase: place the mouse into the water maze at four specific positions in turn in order to test whether the mouse can find the platform or not. Such training is repeated four times a day and continued for 4 days (each mouse is trained a total of 16 times). After 4 days of training, the learning ability of the mouse is measured in testing. After 24 hours of last testing trial, platform was removed and the mouse to freely swim in the pool and observe whether the mouse remembers the position of the platform or not (long-term spatial memory test). The swimming path is recorded by a CCD camera and analyzed with an image tracking system (EthoVision-XT).

Data set [6] deals with serotonergic neurons in Raphe nucleus. Nature of the data set: Immunohistochemical staining, serotonergic neurons (5HT). The note with it: saline-injected mice; Mean±SEM. The protocol: as §1
The inventor collects the brain tissue by perfusion followed by fixing and dehydrating, then, 30 μm frozen sections are obtained by a freezing microtome (CMS3050S, Leica). […] After that, avidin-biotin complex (ABC) is detected 1 hour after staining. […] After all sections have been stained, they are then fixed on a slide, dried, dehydrated, mounted, and photographed for quantity (performed by Image Pro Plus, Meida Cyberetics, USA). […]

The subject of another data set is inactivated GSK3β (pS9). Nature of the data set: Western blot, inactivated GSK3β (pS9). The conditions noted are these: Aβ25-35 mice, hippocampus. The protocol: as §1
Another data set concerns activated microglia. As to the kind of experiment: Immunohistochemical staining, activated microglia in hippocampus. The conditions noted are these: Aβ25-35 mice. The protocol: as §1, §2
The test system of data set [7] is BACE1 (Aβ forming enzyme). Nature of the data set: Western blot, BACE1. The note with it: Aβ25-35 mice, hippocampus. As for the experimental part: as §1
A further data set has as its system pERK. As to the kind of experiment: Western blot, pERK. The note with it: hippocampus. As for the experimental part: as §1
The mark [8] stands for this setting: saline-injected (normal) mice, high dose 0.5 mg/kg i.p.
[9] abbreviates: saline-injected (normal) mice, low dose 0.01 mg/kg i.p.

For `Nc1ccccc1NC(=O)c1ccc(CNc2nccc(-c3cccnc3)n2)cc1` [MGCD0103, N-(2-Aminophenyl)-4-[[(4-pyridin-3-ylpyrimidin-2-yl)amino]methyl] benzamide], in [1], the “spontaneous alternation rate (short-term memory)” value was “significantly increased”. For the same compound, the “expression of IDE protein” value in data set [2] is “significantly increased”. Also, the “time spent in the open arm” value in [3] is reported as “significantly increased”. Also, the “Aβ accumulation within the hippocampal CA1” value in data set [4] is “relieved”. Also, the “learning curve, time required to reach the platform over 4 training days” value is listed as “reduced time required to reach the platform” in data set [5] (Aβ25-35 mice, high dose 0.5 mg/kg i.p.); “reduced time required to reach the platform” in data set [5] (Aβ25-35 mice, low dose 0.01 mg/kg i.p.); “does not significantly decrease” in data set [5] (setting [8]); “does not significantly decrease” in data set [5] (setting [9]). Also, the “time required to reach the platform, testing on day 5” value in [5] (Aβ25-35 mice, high dose 0.5 mg/kg i.p., vs Aβ25-35 alone) is given as “significantly less”; in data set [5] (Aβ25-35 mice, low dose 0.01 mg/kg i.p., vs Aβ25-35 alone), “significantly less”; in [5] (saline-injected (normal) mice treated with MGCD0103, dose not stated), “significantly increased”. The “time spent at the target quadrant after removing the platform (long-term memory)” value is listed as “significantly increased” in data set [5] (Aβ25-35 mice, high dose 0.5 mg/kg i.p., vs Aβ25-35 group without treatment); “significantly increased” in [5] (Aβ25-35 mice, low dose 0.01 mg/kg i.p., vs Aβ25-35 group without treatment); “significantly decreased” in data set [5] (setting [8]); “significantly decreased” in data set [5] (setting [9]). Also, the swimming velocity result in [5] (all groups, low and high dose, saline or Aβ25-35 mice) is on record as “same velocity”. For the same compound, in [6], the “5HT, numbers of serotonergic neurons” value was found to be 21.43 ± 1.32. For the same compound, the “expression of inactivated GSK3β (pS9)” value in the data set on inactivated GSK3β (pS9) is “considerably increased”. The “numbers of activated microglia” value in the data set with activated microglia was “significantly decrease”. Besides, the “expression of BACE1” value in [7] is given as “does not show a significant difference”. Besides, in the data set with pERK, the “expression of pERK” value is “do not show difference”.

These data come from US20180228801A1, “Method for Enhancing Learning Ability and Memory of Patients with Alzheimer's Disease using Mocetinostat” (National Taiwan Normal University, priority 2017, published 2018).
